Reference: patent US5425935A, “Imaging of infections” (British Technology Group Limited, priority 1991, dated 1995)

How the values were obtained:
[1] = tested on: Staphylococcus aureus (SA); test: Take up of Tc-99m complexes by Staphylococcus aureus (SA), percentage radionuclide retained; type: cell-based; conditions: for percent radionuclide retained in the microorganism: 4 hours' incubation, purified complexes
[2] = tested on: Pseudomonas aboubinoba (PA); test: Take up of Tc-99m complexes by Pseudomonas aboubinoba (PA), percentage radionuclide retained; type: cell-based; conditions: for percent radionuclide retained in the microorganism: 4 hours' incubation, purified complexes
[3] = tested on: Escherichia coli (EC); test: Take up of Tc-99m complexes by Escherichia coli (EC), percentage radionuclide retained; type: cell-based; conditions: for percent radionuclide retained in the microorganism: 4 hours' incubation, purified complexes
[4] = Extent of complexation with Tc-99m prior to purification; type: physicochemical
Description: A further sample of Tc-99m-CIP complex was obtained as generally described in Example 1. Samples of Tc-99m complexed ofloxacin (obtained in powder form from Hoechst) and norfloxacin (obtained in powder form from Merck Sharpe & Dohme) were obtained as described for ciprofloxacin. Prior to purification, it was determined that the extent of complexation percent was as follows: […]

[5] = 2 hr. incubation, not further purified
[6] = 4 hr. incubation, not further purified
[7] = 21 hr. incubation, CIP not further purified

| Structure (SMILES) | percentage radionuclide retained in the microorganisms [1, 5] [percentage] | percent radionuclide retained in the microorganism [1] [%] | percentage radionuclide retained in the microorganisms [1, 6] [percentage] | percentage radionuclide retained in the microorganisms [1, 7] [percentage] | percentage radionuclide retained in the microorganisms [2, 5] [percentage] | percent radionuclide retained in the microorganism [2] [%] | percentage radionuclide retained in the microorganisms [2, 6] [percentage] | percentage radionuclide retained in the microorganisms [2, 7] [percentage] | percentage radionuclide retained in the microorganisms [3, 5] [percentage] | percent radionuclide retained in the microorganism [3] [%] | percentage radionuclide retained in the microorganisms [3, 6] [percentage] | percentage radionuclide retained in the microorganisms [3, 7] [percentage] | extent of complexation percent [4] [%] |
| --- | --- | --- | --- | --- | --- | --- | --- | --- | --- | --- | --- | --- | --- |
| O=C(O)c1cn(C2CC2)c2cc(N3CCNCC3)c(F)cc2c1=O [Tc-99m-ciprofloxacin, metal not drawn] | 17.24 | 58.47 | 14.63 | 15.08 | 24.14 | 50.20 | 16.67 | 21.32 | 15.78 | 43.89 | 11.72 | 12.90 | 51.7 |
| CCn1cc(C(=O)O)c(=O)c2cc(F)c(N3CCNCC3)cc21 [norfloxacin] |  | 37.86 |  |  |  | 44.53 |  |  |  | 48.28 |  |  | 76.5 |
| CC1COc2c(N3CCN(C)CC3)c(F)cc3c(=O)c(C(=O)O)cn1c23 (stereo not drawn) [ofloxacin] |  | 76.94 |  |  |  | 79.39 |  |  |  | 77.95 |  |  | 88.5 |
